Counter-ions that a name gives are not always drawn.
Experiments:
human PHD2 = molecular target: T1, human PHD2 (Homo sapiens, UniProt Q9GZT9); assay: Measurement of human PHD inhibitory activity (TR-FRET, hydroxylation of HIF-1α partial peptide); type: biochemical; conditions: human PHD2 enzyme 1 nM, 25° C. 30 min, values consisting solely of numbers; read-out: IC50 (μM) in vitro, human PHD inhibitory activity
T1 construct: made in house; host or cells: Sf9 insect cells (baculovirus, pVL1393 vector)
T1 sequence (Q9GZT9 whole entry): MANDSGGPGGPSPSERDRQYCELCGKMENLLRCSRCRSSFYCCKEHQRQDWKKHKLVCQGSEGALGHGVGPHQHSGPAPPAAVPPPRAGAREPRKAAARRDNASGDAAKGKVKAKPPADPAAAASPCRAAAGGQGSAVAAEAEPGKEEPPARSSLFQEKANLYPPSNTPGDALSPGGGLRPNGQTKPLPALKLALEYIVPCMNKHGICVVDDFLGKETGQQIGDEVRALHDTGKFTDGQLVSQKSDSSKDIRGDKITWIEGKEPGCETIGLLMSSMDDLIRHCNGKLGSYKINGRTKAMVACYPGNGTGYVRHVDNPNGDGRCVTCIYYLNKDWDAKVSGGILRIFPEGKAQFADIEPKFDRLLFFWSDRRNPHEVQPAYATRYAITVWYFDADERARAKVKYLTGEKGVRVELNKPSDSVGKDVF
In short: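 FLAG-tagged human PHD2 from Sf9 cells (1 nM final) hydroxylates a biotinylated 19-residue HIF-1α peptide, 30 min at 25° C. After EDTA stop, hydroxyproline detected by TR-FRET using Eu/Xlent-labelled VBC complex; % inhibition relative to no-enzyme and no-compound wells.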

[1] = test system: human EPO production, Hep3B cells; assay: Human EPO production activity in Hep3B cells (EPO-ELISA of culture supernatant); type: cell-based; conditions: for EC50: Homo sapiens, 24 hr incubation, values consisting solely of numbers, read-out: EC50 (μM) in vitro, human EPO production activity; for production activity (%) at 30 μM in vitro, human EPO: 24 hr, values containing %, relative to maximum production
In short: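 Hep3B cells were dosed with compound 24 h after plating and incubated 24 h at 37° C. Secreted EPO in supernatant was measured by ELISA. Values are EC50, or activity (%) at 30 μM scaled between untreated and maximum production.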

IC50 (human PHD2)	EC50 [1]	Compound	production activity (%) at 30 μM in vitro, human EPO [1]
0.21 µM	23.7 µM	O=C(O)CNC(=O)c1c(O)cc(-c2cc(F)ccc2F)n2ncnc12 [Example 75, {[5-(2,5-difluorophenyl)-7-hydroxy[1,2,4]triazolo[1,5-a]pyridine-8-carbonyl]amino} acetic acid hydrochloride]	
0.22 µM	18 µM	O=C(O)CNC(=O)c1c(O)cc(-c2cc(F)cc(F)c2F)n2ncnc12 [Example 76, {[7-hydroxy-5-(2,3,5-trifluorophenyl) [1,2,4]triazolo[1,5-a]pyridine-8-carbonyl]amino} acetic acid hydrochloride]	
0.24 µM	18.7 µM	O=C(O)CNC(=O)c1c(O)cc(-c2ccc(F)cc2F)n2ncnc12 [Example 77, {[5-(2,4-difluorophenyl)-7-hydroxy[1,2,4]triazolo[1,5-a]pyridine-8-carbonyl]amino} acetic acid hydrochloride]	
0.15 µM	6.6 µM	O=C(O)CNC(=O)c1c(O)cc(-c2ccc(Cl)c(F)c2)n2ncnc12 [Example 78, {[5-(4-chloro-3-fluorophenyl)-7-hydroxy[1,2,4]triazolo[1,5-a]pyridine-8-carbonyl]amino} acetic acid hydrochloride]	
0.23 µM	7.8 µM	Cc1cc(F)cc(-c2cc(O)c(C(=O)NCC(=O)O)c3ncnn23)c1 [Example 79, {[5-(3-fluoro-5-methylphenyl)-7-hydroxy[1,2,4]triazolo[1,5-a]pyridine-8-carbonyl]amino} acetic acid hydrochloride]	
0.71 µM	23.3 µM	O=C(O)CNC(=O)c1c(O)c(Cl)c(CCc2ccccc2)n2ncnc12 [Example 80, [(6-chloro-7-hydroxy-5-phenethyl[1,2,4]triazolo[1,5-a]pyridine-8-carbonyl)amino] acetic acid hydrochloride]	
6.09 µM		CCCc1c(Cl)c(O)c(C(=O)NCC(=O)O)c2ncnn12.Cl [Example 81, [(6-chloro-7-hydroxy-5-propyl[1,2,4]triazolo[1,5-a]pyridine-8-carbonyl)amino] acetic acid hydrochloride]	33%
0.15 µM	5.4 µM	O=C(O)CNC(=O)c1c(O)cc(-c2ccc(C3CC3)cc2F)n2ncnc12 [Example 82, {[5-(4-cyclopropyl-2-fluorophenyl)-7-hydroxy[1,2,4]triazolo[1,5-a]pyridine-8-carbonyl]amino} acetic acid hydrochloride]	
0.16 µM	20.6 µM	O=C(O)CNC(=O)c1c(O)cc(-c2cc(F)cc(F)c2)c2ncnn12 [Example 85, {[8-(3,5-difluorophenyl)-6-hydroxy[1,2,4]triazolo[1,5-a]pyridine-5-carbonyl]amino} acetic acid hydrochloride]	
0.83 µM		Cl.O=C(O)CNC(=O)c1c(O)cc(Cc2ccccc2)c2ncnn12 [Example 86, [(8-benzyl-6-hydroxy[1,2,4]triazolo[1,5-a]pyridine-5-carbonyl)amino] acetic acid hydrochloride]	6%
0.16 µM		O=C(O)CNC(=O)c1c(O)cc(-c2ccccc2Cl)c2ncnn12 [Example 88, {[8-(2-chlorophenyl)-6-hydroxy[1,2,4]triazolo[1,5-a]pyridine-5-carbonyl]amino} acetic acid]	14%
0.12 µM	4.2 µM	O=C(O)CNC(=O)c1c(O)cc(-c2cc(Cl)cc(Cl)c2)c2ncnn12 [Example 89, {[8-(3,5-dichlorophenyl)-6-hydroxy[1,2,4]triazolo[1,5-a]pyridine-5-carbonyl]amino} acetic acid hydrochloride]	
0.29 µM	16.6 µM	O=C(O)CNC(=O)c1c(O)cc(CCc2ccc(F)cc2)c2ncnn12 [Example 90, ({8-[2-(4-fluorophenyl)-ethyl]-6-hydroxy[1,2,4]triazolo[1,5-a]pyridine-5-carbonyl}amino) acetic acid hydrochloride]	
1.53 µM		Cl.O=C(O)CNC(=O)c1c(O)cc(CC2CCCCC2)c2ncnn12 [Example 91, [(8-cyclohexylmethyl-6-hydroxy[1,2,4]triazolo[1,5-a]pyridine-5-carbonyl)amino] acetic acid hydrochloride]	43%
0.51 µM	16 µM	O=C(O)CNC(=O)c1c(O)cc(C2=CCCCC2)c2ncnn12 [Example 93, [(8-cyclohex-1-enyl-6-hydroxy[1,2,4]triazolo[1,5-a]pyridine-5-carbonyl)amino] acetic acid hydrochloride]	
0.11 µM	9.7 µM	O=C(O)CNC(=O)c1c(O)cc(-c2ccc(F)c(Cl)c2)c2ncnn12 [Example 94, {[8-(3-chloro-4-fluorophenyl)-6-hydroxy[1,2,4]triazolo[1,5-a]pyridine-5-carbonyl]amino} acetic acid hydrochloride]	
0.12 µM	4.3 µM	O=C(O)CNC(=O)c1c(O)cc(-c2ccc(Cl)c(Cl)c2)c2ncnn12 [Example 95, {[8-(3,4-dichlorophenyl)-6-hydroxy[1,2,4]triazolo[1,5-a]pyridine-5-carbonyl]amino} acetic acid hydrochloride]	
0.29 µM	5.9 µM	O=C(O)CNC(=O)c1c(O)cc(-c2ccc(Cl)s2)c2ncnn12 [Example 96, {[8-(5-chlorothiophen-2-yl)-6-hydroxy[1,2,4]triazolo[1,5-a]pyridine-5-carbonyl]amino} acetic acid hydrochloride]	
0.13 µM	3.5 µM	O=C(O)CNC(=O)c1c(O)cc(-c2cc(C(F)(F)F)cc(C(F)(F)F)c2)c2ncnn12 [Example 97, {[8-(3,5-bis-trifluoromethyl-phenyl)-6-hydroxy[1,2,4]triazolo[1,5-a]pyridine-5-carbonyl]amino} acetic acid hydrochloride]	
1.13 µM	25.6 µM	O=C(O)CNC(=O)c1c(O)cc(CCC2CCCCC2)c2ncnn12 [Example 98, {[8-(2-cyclohexylethyl)-6-hydroxy[1,2,4]triazolo[1,5-a]pyridine-5-carbonyl]amino} acetic acid hydrochloride]	
0.87 µM	20.2 µM	O=C(O)CNC(=O)c1c(O)cc(CCC2CCCC2)c2ncnn12 [Example 99, {[8-(2-cyclopentylethyl)-6-hydroxy[1,2,4]triazolo[1,5-a]pyridine-5-carbonyl]amino} acetic acid hydrochloride]	
0.82 µM	18 µM	O=C(O)CNC(=O)c1c(O)cc(CCc2ccccc2C(F)(F)F)c2ncnn12 [Example 100, ({6-hydroxy-8-[2-(2-trifluoromethyl phenyl)ethyl][1,2,4]triazolo[1,5-a]pyridine-5-carbonyl}amino) acetic acid hydrochloride]	
0.37 µM		Cl.O=C(O)CNC(=O)c1c(O)cc(CCc2cccc(C(F)(F)F)c2)c2ncnn12 [Example 101, ({6-hydroxy-8-[2-(3-trifluoromethyl phenyl)ethyl] [1,2,4]triazolo[1,5-a]pyridine-5-carbonyl}amino) acetic acid hydrochloride]	6%
0.51 µM	16 µM	O=C(O)CNC(=O)c1c(O)cc(CCc2ccc(C(F)(F)F)cc2)c2ncnn12 [Example 102, ({6-hydroxy-8-[2-(4-trifluoromethyl phenyl)ethyl] [1,2,4]triazolo[1,5-a]pyridine-5-carbonyl}amino) acetic acid hydrochloride]	
0.18 µM	6.9 µM	O=C(O)CNC(=O)c1c(O)cc(-c2cc(Cl)cc(C3CC3)c2)c2ncnn12 [Example 103, {[8-(3-chloro-5-cyclopropylphenyl)-6-hydroxy[1,2,4]triazolo[1,5-a]pyridine-5-carbonyl]amino} acetic acid hydrochloride]	
0.19 µM	6.3 µM	O=C(O)CNC(=O)c1c(O)cc(-c2cc(F)cc(C(F)(F)F)c2)c2ncnn12 [Example 104, {[8-(3-fluoro-5-trifluoromethyl-phenyl)-6-hydroxy[1,2,4]triazolo[1,5-a]pyridine-5-carbonyl]amino} acetic acid hydrochloride]	
0.1 µM	5.9 µM	O=C(O)CNC(=O)c1c(O)cc(-c2cc(F)cc(Cl)c2)c2ncnn12 [Example 105, {[8-(3-chloro-5-fluorophenyl)-6-hydroxy[1,2,4]triazolo[1,5-a]pyridine-5-carbonyl]amino} acetic acid hydrochloride]	
0.23 µM	6 µM	O=C(O)CNC(=O)c1c(O)cc(-c2ccc(F)c(C(F)(F)F)c2)c2ncnn12 [Example 106, {[8-(4-fluoro-3-trifluoromethyl-phenyl)-6-hydroxy[1,2,4]triazolo[1,5-a]pyridine-5-carbonyl]amino} acetic acid hydrochloride]	
0.16 µM	8.9 µM	O=C(O)CNC(=O)c1c(O)cc(-c2ccc(Cl)cc2)c2ncnn12 [Example 108, {[8-(4-chlorophenyl)-6-hydroxy[1,2,4]triazolo[1,5-a]pyridine-5-carbonyl]amino} acetic acid]	
0.17 µM	13.7 µM	O=C(O)CNC(=O)c1c(O)cc(CCc2cc(F)cc(F)c2)c2ncnn12 [Example 109, ({8-[2-(3,5-difluoro-phenyl)-ethyl]-6-hydroxy[1,2,4]triazolo[1,5-a]pyridine-5-carbonyl}amino) acetic acid hydrochloride]	

Reference: patent US8283465B2, “Triazolopyridine compound, and action thereof as prolyl hydroxylase inhibitor or erythropoietin production-inducing agent” (Japan Tobacco Inc., priority 2009, dated 2012)
